Assay results published in PMC6152678, “In Vitro Comparative Study of the Inhibitory Effects of Mangiferin and Its Aglycone Norathyriol towards UDP-Glucuronosyl Transferase (UGT) Isoforms” (Molecules : A Journal of Synthetic Chemistry and Natural …, 2017).

Assays:
[1] = target: T1, UGT1A7 (Homo sapiens, UniProt Q9HAW7); assay: Inhibition of recombinant UGT-catalyzed 4-MU glucuronidation; type: biochemical; settings: for inhibition at 30 min, 100 µM: human, pH 7.4, probe 4-methylumbelliferone (4-MU), 30 μM, 100 μM compound, 4-MU probe substrate, negative = activation
T1 construct: purchased BD Gentest Corp. (Woburn, MA, USA); host or cells: baculovirus-infected insect cells
T1 sequence (Q9HAW7 26-530): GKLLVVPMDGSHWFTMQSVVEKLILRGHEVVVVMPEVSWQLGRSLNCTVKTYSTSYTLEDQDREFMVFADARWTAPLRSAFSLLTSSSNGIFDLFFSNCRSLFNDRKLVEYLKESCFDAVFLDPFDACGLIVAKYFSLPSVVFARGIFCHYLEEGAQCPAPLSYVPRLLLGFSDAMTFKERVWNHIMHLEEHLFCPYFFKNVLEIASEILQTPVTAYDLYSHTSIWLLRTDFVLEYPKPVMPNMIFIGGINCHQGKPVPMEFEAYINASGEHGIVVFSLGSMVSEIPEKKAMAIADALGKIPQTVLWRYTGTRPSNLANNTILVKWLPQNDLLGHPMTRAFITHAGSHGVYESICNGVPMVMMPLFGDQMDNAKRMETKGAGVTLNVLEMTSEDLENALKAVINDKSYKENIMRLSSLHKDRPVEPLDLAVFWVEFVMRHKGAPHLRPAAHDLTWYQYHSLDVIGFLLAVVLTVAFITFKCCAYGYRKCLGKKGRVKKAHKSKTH
Protocol: (§1) Sigma-Aldrich (St Louis, MO, USA) provided the following constituents in the incubation mixture: 4-methylumbelliferone (4-MU), 4-methylumbelliferone-β-D-glucuronide (4-MUG), Tris-HCl, 7-hydroxycoumarin, and uridine-diphosphoglucuronic acid (UDPGA) (trisodium salt). All other compounds were of high-performance liquid chromatography (HPLC) grade or of the highest grade commercially available. For enzyme sources, recombinant UGT isoforms expressed in baculovirus-infected insect cells were purchased from BD Gentest Corp. (Woburn, MA, USA), including UGT1A1, 1A3, 1A6, 1A7, 1A8, 1A9, 1A10, 2B4, 2B7, 2B15, and 2B17.
(§2) 4-MU, a nonspecific probe substrate for all the UGT isoforms, was employed to investigate the inhibition of MEF and NIR towards the activity of UGT isoforms. The incubation and analytical methods have been previously described. […] MEF and NIR were dissolved in the DMSO to make a stock solution of 20 mM, and various concentrations of working solutions were prepared through dilution with DMSO. 4-MU was used as a non-selective substrate of UGTs. There was a 5-min pre-incubation step at 37 °C before the reaction was initiated by the addition of UDPGA. 4-MU and inhibitors were previously dissolved in DMSO, and the total concentration of DMSO was 1%. The reactions were continued at 37 °C for 120 min for UGT1A1, UGT1A3, UGT1A10, UGT2B4, UGT2B7, UGT2B15 and UGT2B17, 30 min for UGT1A6, UGT1A7, UGT1A8, and UGT1A9, respectively. Reactions were terminated by the addition of 100 μL acetonitrile with 7-hydroxycoumarin (100 μM) as internal standard. The incubation mixtures were then centrifuged at 12,000 r/min for 10 min. 2 μL supernatant was injected into the UPLC system for analysis. An ACQUITY UPLC System (Waters, Milford, MA, USA) equipped with UV detector was used to analyze the samples, and the separation of all the compounds were carried out using a ACQUITY UPLC® BEH C18 (2.1 × 100 mm, 1.7 μm Waters) at a flow rate of 0.2 mL/min and UV detector at 316 nm. The mobile phase was consisted of ultrapure water containing 0.5% formic acid (A) and acetonitrile (B). The following gradient condition was used: 0–3.5 min, 10–65% B; 3.5–4.0 min, 65% B; 4.0–9.0 min, 10% B. To calculate the standard curve 0.1–100 μM of 4-MUG was used through drawing the peak area ration of 4-MUG/internal standard towards the concentration range of 4-MUG. The curve was linear over this concentration range, with an r^2 value > 0.99.
(§3) The inhibition type and Kinetics were determined for the inhibition of NTR towards UGT1A3, UGT1A7 and UGT1A9. The glucuronidation velocity of 4-MU was determined at multiple concentrations of 4-MU and NTR. Dixon and Lineweaver–Burk plots were employed to determine the inhibition type, and the second plot of the slopes from the Lineweaver–Burk plot versus the compound concentrations was utilized to calculate the Ki value. The determination of IC50 was calculated using Probit analysis in SPSS11.5 (SPSS, Chicago, IL, USA). The Student’s t-test was adopted at a significance level of p < 0.05 to determine statistically significant differences among experimental groups.

[2] = target: T2, UGT1A8 (Homo sapiens, UniProt Q9HAW9); assay: as above; type: biochemical; settings: pH 7.4, probe 4-methylumbelliferone (4-MU), 750 μM, 100 μM compound, 4-MU probe substrate, negative = activation
T2 construct: purchased BD Gentest Corp. (Woburn, MA, USA); host or cells: baculovirus-infected insect cells
T2 sequence (Q9HAW9 26-530): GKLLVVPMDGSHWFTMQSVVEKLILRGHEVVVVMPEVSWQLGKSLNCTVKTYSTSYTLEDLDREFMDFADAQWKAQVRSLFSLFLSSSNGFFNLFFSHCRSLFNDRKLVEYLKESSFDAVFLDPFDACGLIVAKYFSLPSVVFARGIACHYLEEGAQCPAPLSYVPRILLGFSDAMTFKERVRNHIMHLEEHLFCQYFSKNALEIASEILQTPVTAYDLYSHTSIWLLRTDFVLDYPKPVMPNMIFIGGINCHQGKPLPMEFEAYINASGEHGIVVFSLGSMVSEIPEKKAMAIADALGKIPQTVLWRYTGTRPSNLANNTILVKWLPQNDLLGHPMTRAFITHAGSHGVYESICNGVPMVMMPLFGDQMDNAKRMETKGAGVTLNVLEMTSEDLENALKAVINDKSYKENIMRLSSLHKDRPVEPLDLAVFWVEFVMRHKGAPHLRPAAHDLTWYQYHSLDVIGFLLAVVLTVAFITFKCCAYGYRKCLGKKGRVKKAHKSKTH
Protocol: as §1, §2, §3

[3] = design: method as in PMID 27130074; settings: after administration of 200 mg/kg MGF; cited from earlier work

Compound: O=c1c2cc(O)c(O)cc2oc2cc(O)cc(O)c12 [NTR, 1,3,6,7-tetrahydroxyxanthone]
- IC50 ([1]; 4-MU glucuronidation, Probit analysis, read-out: IC50 towards UGT1A7): 4.4 µM
- inhibition type towards UGT1A7 ([1]; Dixon plot and Lineweaver-Burk plot): competitively inhibited
- inhibition at 30 min, 100 µM [1]: 94.9%
- Ki ([1]; second plot of Lineweaver-Burk slopes, read-out: inhibition constant (Ki) towards UGT1A7): 2 µM
- inhibition at 30 min, 100 µM [2]: 57%
- AUCNTR/AUCMGF [3]: < 3%
- Cmax [3]: < 3 ng/mL

Compound: O=c1c2cc(O)c(O)cc2oc2cc(O)c([C@@H]3O[C@H](CO)[C@@H](O)[C@H](O)[C@H]3O)c(O)c12 [MGF, 1,3,6,7-tetrahydroxyxanthone-C-2-β-D-glucoside]
- inhibition at 30 min, 100 µM [1]: 26.7%
- inhibition at 30 min, 100 µM [2]: -70.9%
- Cmax [3]: 202.58 ng/mL
